{
  "source": "patent US20250241301A1",
  "about": "“COMPOSITIONS AND METHODS FOR INHIBITING PATHOGEN GROWTH ON PLANTS AND IMPROVING CROP SAFETY” (priority 2024, published 2025)",
  "origin": "cited, not measured here",
  "system": "potatoes",
  "conditions": "T2H applied alone; cited from earlier work",
  "data": [
    {"compound": "CCC/C=C/C=O", "note": "[T2H, trans-2-hexenal]", "values": [
      {"measurement": "skin pitting/lesion damage to potatoes", "value": "skin pitting/lesion damage"}
    ]}
  ]
}
